What was measured:
[1] = test system: intraperitoneal macrophages (CD11b+F4/80+ cells); test: Production of IFNβ after cGAMP stimulation of intraperitoneal macrophages; format: cell-based, mouse; conditions: macrophages derived from Alg1-KO mice versus WT; 3, 10 or 30 μM; 24 and 48 hours
Description: To C57BL/6N mice and Alg1-KO mice, a 3% thioglycolate medium was intraperitoneally administered at 1 mL/body. After 3 days, 5 mL of 5 mM EDTA/PBS was injected for intraperitoneal lavage and the drain was collected. After haemolysis treatment, the proportion of CD11b^+F4/80^+ cells among intraperitoneal invasive cells was calculated on a flow cytometer.
The cells were seeded in a 96-well plate so that the CD11b^+F4/80^+ cells are 2×10^5 cells/well, the culture supernatant was discarded after 1 hour, the cells were washed once with the medium and the medium containing 3, 10 or 30 μM cyclic GMP-AMP (cGAMP), respectively was added. The culture supernatant was collected after 24 and 48 hours and the amount of IFN-β in the culture supernatants was measured.

TLR7 = test: Production of type I IFN after administration of polyuridine (serum ELISA); format: in vivo; conditions: Alg1-KO mice versus WT; 50 μg/mouse i.v. with DOTAP; 2 and 6 hours after administration
Description: To C57BL/6 mice (WT mice) and Alg1-KO mice, polyuridine was intravenously administered together with a liposome transfection reagent, DOTAP. The dosage was 50 μg/mouse. Serum IFNα and IFNβ were measured by ELISA at 2 and 6 hours after administration.

Substance | production of IFNβ (culture supernatant) [1] | production of IFNα (serum) (TLR7) | production of IFNβ (serum) (TLR7)
cyclic GMP-AMP [cGAMP] | increased compared to WT |  | 
polyuridine |  | increased compared to WT | increased compared to WT
